Test systems include LOX IMVI melanoma; HL-60(TB) leukemia; MOLT-4 leukemia; OVCAR-8 ovarian; SF-295 CNS; SW-620 colon; OVCAR-5 ovarian; SF-268 CNS; UACC-62 melanoma; SR leukemia.
Experiment in all cases: inhibition of tumour cell growth, NCI panel, 48 h

SMILES strings stand for the structures.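 Results reflect a 48-hour exposure of cells in 96-well plates to compound at five concentrations. At the GI50, growth is halved. TGI: total growth inhibition.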

For the compound `CN(C)CCNC(=O)c1cccc2nc3ccc4cccnc4c3nc12`, the TGI in the assay with LOX IMVI melanoma is 1.51 µM; with HL-60(TB) leukemia, 2.91 µM; in the assay on MOLT-4 leukemia, 0.763 µM; with OVCAR-8 ovarian, 7.42 µM; in the assay on SF-295 CNS, 3.94 µM; in the assay with SW-620 colon, 4.92 µM. The TGI with OVCAR-5 ovarian came to 2.67 µM; in the assay with SF-268 CNS, 3.13 µM; in the assay on UACC-62 melanoma, 1.54 µM.
In the case of `O=C1NC(=O)C(=Cc2c3ccccc3cc3ccccc23)C(=O)N1`, the TGI in the assay with LOX IMVI melanoma, with HL-60(TB) leukemia, in the assay on MOLT-4 leukemia, in the assay on OVCAR-8 ovarian, in the assay with SW-620 colon and with SF-268 CNS was > 100 µM in each case. Also, the TGI in the assay on UACC-62 melanoma is > 100 µM.
As to `CC(C)(CN1CCOCC1)C(=O)/C=C/c1ccc(/C=C/C(=O)C(C)(C)CN2CCOCC2)cc1`, the TGI with LOX IMVI melanoma was determined as 1.54 µM; in the assay on HL-60(TB) leukemia it was 3.92 µM; with MOLT-4 leukemia it was 0.694 µM; in the assay on OVCAR-8 ovarian, 7.52 µM; in the assay with SF-295 CNS, 4.63 µM; with OVCAR-5 ovarian, 3.26 µM. In the assay on UACC-62 melanoma, this compound returned a TGI of 2.98 µM.
In the case of `COc1cccc(OC(=O)c2ccc(C(F)(F)F)nc2Nc2c(C)cccc2Cl)c1`, the GI50 in the assay with LOX IMVI melanoma was 20 µM; with MOLT-4 leukemia it was 31.5 µM; in the assay on OVCAR-8 ovarian it was 19.5 µM; in the assay with SF-295 CNS, 17.1 µM; in the assay on SW-620 colon it was 46 µM; in the assay with OVCAR-5 ovarian, 3.13 µM. The GI50 in the assay on SF-268 CNS is 24.8 µM; in the assay on UACC-62 melanoma, 17.3 µM. The TGI was 64.8 µM in the assay with LOX IMVI melanoma; > 100 µM with MOLT-4 leukemia; 46.3 µM in the assay on OVCAR-8 ovarian; 48.5 µM in the assay with SF-295 CNS; > 100 µM with SW-620 colon; 21.2 µM with OVCAR-5 ovarian. Moreover, the figures for the TGI in the assay on SF-268 CNS and in the assay on UACC-62 melanoma were 86.8 µM and 39.4 µM, respectively.
Regarding `Cc1cc2c(c3nocc13)C(=O)c1ccccc1C2=O`, the TGI with LOX IMVI melanoma, with HL-60(TB) leukemia, in the assay with MOLT-4 leukemia, with OVCAR-8 ovarian, with SF-295 CNS and with SW-620 colon was > 100 µM each time. Further, the TGI with OVCAR-5 ovarian, in the assay with SF-268 CNS and in the assay with UACC-62 melanoma was > 100 µM in each case.
In the case of `Cc1cc(C)nc(NS(=O)(=O)c2ccc(Nc3c4ccccc4nc4c(C(=O)Nc5ccc(S(=O)(=O)Nc6cc(C)on6)cc5)ccc(Cl)c34)cc2)n1`, the TGI in the assay with LOX IMVI melanoma is > 100 µM; in the assay on MOLT-4 leukemia it was 49.1 µM; with OVCAR-8 ovarian, > 100 µM; in the assay with SF-295 CNS it was 44.8 µM; in the assay with OVCAR-5 ovarian, 44.6 µM; with SR leukemia, 53.8 µM. In addition, the TGI was > 100 µM in the assay with SF-268 CNS and 80.1 µM in the assay with UACC-62 melanoma.
For `COc1cc2c3c(n(CCCCNC(=O)OC(C)(C)C)c(=O)c2cc1OC)-c1cc2c(cc1C3=O)OCO2`, the GI50 with LOX IMVI melanoma is > 100 µM; with OVCAR-8 ovarian, > 100 µM; in the assay with SF-295 CNS, 16.1 µM; in the assay on SW-620 colon it was > 100 µM; in the assay on OVCAR-5 ovarian, > 100 µM; with SF-268 CNS, 15.3 µM. In addition, the GI50 in the assay with UACC-62 melanoma was > 100 µM. Further, the TGI with LOX IMVI melanoma, in the assay with OVCAR-8 ovarian, in the assay with SF-295 CNS, in the assay with SW-620 colon, with OVCAR-5 ovarian and with SF-268 CNS was > 100 µM throughout. Moreover, the TGI with UACC-62 melanoma is > 100 µM.
In the case of `COc1cccc2c1C(=O)c1c(O)c3c(c(O)c1C2=O)C[C@@](O)(C(C)=O)C[C@@H]3OC1CC([N+]([O-])(Cc2ccccc2)Cc2ccccc2)C(O)C(C)O1` (some centres undefined), the TGI in the assay with LOX IMVI melanoma came to 2.41 µM; in the assay with OVCAR-8 ovarian, 14.9 µM; with SF-295 CNS it was 2.88 µM; in the assay with SW-620 colon, 2.54 µM; in the assay on OVCAR-5 ovarian it was 3.22 µM; in the assay on UACC-62 melanoma it was 2.83 µM.
For the compound `Cc1c(N)nc([C@H](CC(N)=O)NC[C@H](N)C(N)=O)nc1C(=O)N[C@H](C(=O)N[C@H](C)[C@@H](O)CC(=O)N[C@H](C(=O)NC(O[C@@H]1O[C@@H](C)[C@@H](N)[C@@H](O)[C@H]1O)C(O)c1nc(-c2nc(C(=O)NCCCCN)cs2)cs1)[C@@H](C)O)[C@@H](O[C@@H]1O[C@@H](CO)[C@@H](O)[C@H](O)[C@@H]1O[C@H]1O[C@H](CO)[C@@H](O)[C@H](OC(N)=O)[C@@H]1O)c1c[nH]cn1` (some centres undefined), the TGI in the assay with LOX IMVI melanoma, in the assay on HL-60(TB) leukemia, in the assay with MOLT-4 leukemia, in the assay with OVCAR-8 ovarian, in the assay with SF-295 CNS and in the assay with SW-620 colon was > 50 µM throughout. Besides, the TGI in the assay with OVCAR-5 ovarian, in the assay on SF-268 CNS and with UACC-62 melanoma was > 50 µM throughout.
As for `CCN(CC)CCC(=O)OC1C(C)=CC(C)C(=O)CC(C(C)CC2CCC(O)C(OC)C2)OC(=O)C2CCCCN2C(=O)C(=O)[C@@]2(O)OC(CCC2C)CC(OC)\C(C)=C/C=C/C=C/C(C)CC(C)C(=O)C1OC` (some centres undefined), the TGI came to 19.2 µM with LOX IMVI melanoma; 16 µM in the assay on HL-60(TB) leukemia; 22.5 µM in the assay on OVCAR-8 ovarian; 18.5 µM in the assay with SF-295 CNS; 25.3 µM with SW-620 colon; 25.6 µM in the assay with OVCAR-5 ovarian. Moreover, the TGI was 20.5 µM in the assay with SF-268 CNS and 19.8 µM in the assay on UACC-62 melanoma.
In the case of `CCNc1cc2oc(=O)cc(C(F)(F)F)c2cc1C`, the TGI in the assay with LOX IMVI melanoma, in the assay on MOLT-4 leukemia, in the assay with OVCAR-8 ovarian, in the assay on SF-295 CNS, with SW-620 colon and in the assay on OVCAR-5 ovarian was > 100 µM in each case. Further, the TGI in the assay on SF-268 CNS and in the assay on UACC-62 melanoma was > 100 µM throughout.
Take `COc1cccc(Sc2ccc([N+](=O)[O-])c3no[n+]([O-])c23)c1`: the GI50 is 3.38 µM with LOX IMVI melanoma; 5.12 µM with HL-60(TB) leukemia; 4.27 µM in the assay on MOLT-4 leukemia; 6.22 µM with OVCAR-8 ovarian; 24.5 µM with SF-295 CNS; 2.5 µM with SW-620 colon. The results for the GI50 in the assay with OVCAR-5 ovarian, with SF-268 CNS and with UACC-62 melanoma were 8.31 µM, 12.5 µM and 13.7 µM, respectively. Besides, the TGI stood at 11.5 µM in the assay with LOX IMVI melanoma; 14.6 µM in the assay on HL-60(TB) leukemia; 16.5 µM in the assay with MOLT-4 leukemia; 24.8 µM with OVCAR-8 ovarian; 62.8 µM with SF-295 CNS; 6.14 µM in the assay with SW-620 colon. In addition, the TGI in the assay on OVCAR-5 ovarian came to 20.2 µM; in the assay with SF-268 CNS, 30 µM; in the assay on UACC-62 melanoma, 36 µM.
